According to BindingDB's records for doi:10.1111/j.1747-0285.2009.00833.x (Bayer Healthcare, 2009):

Target: Heat shock protein HSP 90-alpha (Homo sapiens, UniProt P07900)
Assay: Competition Assay
Settings: pH 7.4
Text: To assess the affinity of compounds binding to Hsp90, we measured their ability to compete with the binding of a fluorescent analog of GA (GM-Bodipy) to Hsp90 using fluoresence polarization.

Structure (SMILES)	IC50 [nM]
CCOC(=O)NCc1ccc(-n2c(-c3cc(C(C)C)c(O)cc3O)n[nH]c2=S)cc1 [BX-2819]	0.04
CCc1cc(-c2nnc(S)n2-c2cccc3ccccc23)c(O)cc1O [Ethyl analog, 4]	0.2
CCOC(=O)NCc1ccc(-n2c(-c3ccc(O)cc3O)n[nH]c2=S)cc1 [Ethyl carbamate analog, 3]	0.1
Oc1ccc(-c2nnc(S)n2-c2cccc3ccccc23)c(O)c1 [Resorcinol analog, 1]	0.3
Oc1ccc(-c2nnc(S)n2-c2ccccc2)c(O)c1 [Unsubstituted phenyl ring analog, 2]	0.5
CC(C)c1cc(-c2n[nH]c(=S)n2-c2cccc3ccccc23)c(O)cc1O [lspropyl analog, 5]	0.1
